Several values for one entry are separate records, joined by “and”; a condition that tells them apart may be missing. Equal values may be shown once. Read-outs that look alike come from different tables or passages of the source. Starred links: 1 amine or outer side, 2 acyl side, 3 side chain; linkers in the order of their positions; H or OH if unused. Positions of bridges follow the written chain, without caps; N, C: chain ends. Non-standard residues stand in square brackets, D forms with d. Residues, ends and D or L forms follow the SMILES beside them. *: point of attachment. RhodamineB = CCN(CC)c1ccc2c(-c3ccccc3C(=O)*)c3ccc(=[N+](CC)CC)cc-3oc2c1; Trimesoyl = O=C(c1cc(C(=O)[*:2])cc(C(=O)[*:3])c1)[*:1]; 2Nal = N[C@@H](Cc1ccc2ccccc2c1)C(=O)O; Pip = O=C(O)[C@@H]1CCCCN1; Dap = NC[C@H](N)C(=O)O; Sar = CNCC(=O)O
Key:
[1] = test system: HeLa cells; assay: FACS uptake of FITC-labeled peptides; format: cell-based, human; settings: 5 μM, 2 h
[2] = test system: mammalian cells; settings: Qian et al. 2013; cited from earlier work
[3] = test system: HeLa cells; assay: Effect on endocytosis of dextran^Alexa488, flow cytometry; format: cell-based, human; settings: 1 μM cFΦR4, 100 μM dextran^Alexa488, 30 min
Description: HeLa cells were treated with clear DMEM containing no supplement, 1 μM cFΦR4 only, 100 μM dextran^Alexa488 only, or both 1 μM cFΦR4 and 100 μM dextran^Alexa488. MFI, mean fluorescence intensity.
Following adherence, cells were treated with clear DMEM containing no supplement, 1 μM cFΦR4 peptide, 100 μM dextran^Alexa488 (Life Technologies, D-22910), or both 1 μM cyclic peptide and 100 μM dextran^Alexa488 for 30 min under standard cell culture conditions. The cells were washed with DPBS twice, removed from the plate with 0.25% trypsin, diluted into clear DMEM containing 10% FBS, pelleted at 300 g for 5 min, washed once with DPBS and resuspended in 200 μL of DPBS. Whole-cell dextran uptake was analyzed on a BD Accuri C6 flow cytometer using the manufacturer FL1 laser and filter set.

[4] = test system: SUV1 (vesicles that mimic the neutral outer membrane of mammalian cells); assay: Fluorescence polarization membrane binding, SUV1
From the text: (§1) Also discussed herein are the CPP sequences in Table 16. All uptake/delivery efficiencies are in Table 17 are relative to that of cFΦR4 (290-1F, 100%). SUV1 are small unilamellar vesicles that mimic the neutral outer membrane of mammalian cells [45% phosphatidylcholine (PC), 20% phosphatidylethanolamine (PE), 20% sphingomyelin (SM), and 15% cholesterol (CHO)]. SUV2 are small unilamellar vesicles that mimic the negatively charged endosomal membrane of mammalian cells [50% PC, 20% PE, 10% phosphatidylinositol (PI), and 20% bis(monoacylglycerol)phosphate].
(§2) Measurements were carried out fluorescence polarization using FITC-labeled cyclic peptides against increasing concentrations of vesicles. Experiments were performed at pH 7.4 and 5.5 (pH inside late endosomes).

[5] = test system: SUV2 (vesicles that mimic the negatively charged endosomal membrane of mammalian cells); assay: Fluorescence polarization membrane binding, SUV2
From the text: as §1, §2

[6] = test system: HEK293, MCF-7, A549, H1650, and H1299; assay: MTT cytotoxicity assay; format: cell-based, human
Description: MTT assays were performed to evaluate cyclic peptide's cytotoxicity against several mammalian cell lines (Mosmann, T. J. Immunol. Methods, 1983, 65, 55-63). One hundred μL of MCF-7, HEK293, H1299, H1650, A549 (1×10^5 cells/mL) cells were placed in each well of a 96-well culture plate and allowed to grow overnight. Varying concentrations of the peptide (5 or 50 μM) were added to the each well and the cells were incubated at 37° C. with 5% CO2 for 24 to 72 h. Ten μL of MTT stock solution was added into each well. Addition of 10 μL of the solution to the growth medium (no cell) was used as a negative control. The plate was incubated at 37° C. for 4 h. Then 100 μL of SDS-HCl solubilizing buffer was added into each well, and the resulting solution was mixed thoroughly. The plate was incubated at 37° C. for another 4 h. The absorbance of the formazan product was measured at 570 nm using a Molecular Devices Spectramax M5 plate reader. Each experiment was performed in triplicates and the cells without any peptide added were treated as control.

[7] = test system: cell type (e.g., HeLa cells); assay: Cellular uptake efficiency of cyclic CPPs; format: cell-based; settings: relative to cFΦR4 (290-1F, 100%)
Description: In particular embodiments, uptake efficiency is determined by comparing (i) the amount of a cyclic cell-penetrating peptide of the invention internalized by a cell type (e.g., HeLa cells) to (ii) the amount of c(FΦRRRRQ) (290-1F) internalized by the same cell type. To measure cellular uptake efficiency, the cell type may be incubated in the presence of a cell-penetrating peptide of the invention for a specified period of time (e.g., 30 minutes, 1 hour, 2 hours, etc.) after which the amount of the cell-penetrating peptide internalized by the cell is quantified. Separately, the same concentration of c(FΦRRRRQ) (290-1F) is incubated in the presence of the cell type over the same period of time, and the amount of the second peptide internalized by the cell is quantified. Quantification can be achieved by fluorescently labeling the cell-penetrating peptide (e.g., with a FTIC dye) and measuring the fluorescence intensity using techniques well-known in the art.
as §1

[8] = test system: HeLa cells; assay: Cytoplasmic delivery of pCAP-containing peptides, flow cytometry; settings: pCAP-containing peptide as cargo
[9] = Aqueous solubility; format: physicochemical
[10] = biological target: T1, Pin1 (Homo sapiens, UniProt Q13526, S16A/Y23A); assay: Pin1 binding by FA (FITC-labeled peptides); settings: FITC-labeled peptide, FA; read-out: KD
T1 construct: The full-length human S16A/Y23A mutant Pin1 was expressed and purified from E. coli; made in house

[11] = biological target: T1, Pin1; assay: Fluorescence anisotropy binding to Pin1
Description: The gene coding for the catalytic domain of PTP1B (amino acids 1-321) was amplified by the polymerase chain reaction using PTP1B cDNA as template and oligonucleotides 5′-[…]-3′ and 5′-[…]-3′ as primers. […] Expression and purification of the ybbR-tagged PTP1B were carried out as previously described (Ren, L et al. Biochemistry 2011, 50, 2339-2356). […] The reaction mixture was passed through a G-25 fast-desalting column equilibrated in 30 mM HEPES, pH 7.4, 150 mM NaCl to remove any free dye molecules. The full-length human S16A/Y23A mutant Pin1 was expressed and purified from E. coli as previously described (Liu, T et al. J. Med. Chem. 2010, 53, 2494-2501).
FA experiments were carried out by incubating 100 nM FITC-labeled peptide with varying concentrations of protein in 20 mM HEPES (pH 7.4), 150 mM NaCl, 2 mM magnesium acetate, and 0.1% bovine serum albumin (BSA) for 2 h at room temperature. The FA values were measured on a Molecular Devices Spectramax M5 plate reader, with excitation and emission wavelengths at 485 and 525 nm, respectively. Equilibrium dissociation constants (KD) were determined by plotting the FA values as a function of protein concentration and fitting the curve to the following equation:
[formula] where Y is the FA value at a given protein concentration x, L is the peptide concentration, Qb/Qf is the correction factor for fluorophore-protein interaction, Amax is the maximum FA value when all of the peptides are bound to protein, while Amin is the minimum FA value when all of the peptides are free. FA competition assay was performed by incubating 100 nM FITC-labeled Pin1 inhibitor 5 with 1 μM Pin1, followed by the addition of 0-5 μM unlabeled inhibitor. The FA values were measured similarly on a pate reader. IC50 values were obtained by plotting the FA values against the competitor concentration and curve fitting using the four-parameter dose-response inhibition equation (Prism 6, GraphPad).

[12] = biological target: T2, PTP1B (Homo sapiens, UniProt P18031); assay: PTP inhibition assay (pNPP); format: biochemical; settings: pNPP 0-24 mM; read-out: K1 (competitive inhibition constant)
T2 construct: The gene coding for the catalytic domain of PTP1B (amino acids 1-321) was amplified; made in house; host or cells: prokaryotic vector pET-22b(+)-ybbR
Description: PTP assays were performed in a quartz microcuvette (total volume 150 μL). The reaction mixture contains 100 mM Tris-HCl, pH 7.4, 50 mM NaCl, 2 mM EDTA, 1 mM TCEP, 0-1 μM of PTP inhibitor, and 500 μM para-nitrophenyl phosphate (pNPP). The enzymatic reaction was initiated by the addition of PTP (final concentration 15-75 nM) and monitored continuously at 405 nm on a UV-VIS spectrophotometer. Initial rates were calculated from the reaction progress curves (typically <60 s). The half-maximal inhibition constant (IC50) was defined as the concentration of an inhibitor that reduced the enzyme activity to 50% and was obtained by plotting the rates (V) against the inhibitor concentration [I] and fitting the data against the equation
[formula] where V0 is the enzymatic reaction rate in the absence of inhibitor. […] The reaction rate (V) was plotted against the pNPP concentration ([S]) and fitted against the equation
[formula] to obtain the Michaelis constant K. The Ki value was obtained by plotting the K values against the inhibitor concentration [I] and fitted to equation
[formula] where K0 is the Michaelis constant in the absence of inhibitor ([I]=0).

[13] = pKa of CAP fluorophore; format: physicochemical; settings: deprotonated state fluorescent
[14] = Serum stability test (25% human serum); format: in vitro ADME; settings: 37° C.
Description: The stability tests were carried by modifying a previously reported procedure (Nguyen, L T et al. […] At various time points (0-6 h), 200-μL aliquots were withdrawn and mixed with 50 μl of 15% trichloroacetic acid and incubated at 4° C. overnight. The final mixture was centrifuged at 15,000 rpm for 10 min in a microcentrifuge, and the supernatant was analyzed by reversed-phase HPLC equipped with a C18 column (Waters). The amount of remaining peptide (%) was determined by integrating the area underneath the peptide peak (monitored at 214 nm) and compared with that of the control reaction (no serum).

T1 sequence (Q13526 whole entry S16A/Y23A): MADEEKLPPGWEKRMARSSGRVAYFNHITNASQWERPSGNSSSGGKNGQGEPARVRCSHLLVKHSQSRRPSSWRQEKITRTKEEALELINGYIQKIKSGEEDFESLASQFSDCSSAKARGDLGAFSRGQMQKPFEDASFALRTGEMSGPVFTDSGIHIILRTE
T2 sequence (P18031 1-321): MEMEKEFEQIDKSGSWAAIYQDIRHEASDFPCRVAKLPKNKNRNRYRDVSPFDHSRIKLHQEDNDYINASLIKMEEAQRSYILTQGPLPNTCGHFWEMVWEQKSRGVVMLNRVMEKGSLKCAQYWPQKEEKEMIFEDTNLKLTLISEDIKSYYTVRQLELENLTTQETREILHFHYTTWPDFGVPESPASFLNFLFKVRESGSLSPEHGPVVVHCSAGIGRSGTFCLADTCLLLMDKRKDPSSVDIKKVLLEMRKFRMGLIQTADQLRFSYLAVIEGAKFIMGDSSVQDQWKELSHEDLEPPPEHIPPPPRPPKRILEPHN

fluorescein isothiocyanate [FITC, reference compound]
Mean fluorescence intensity (MFI), total intracellular FITC fluorescence [1]: 1200 arbitrary units (AU)

N=C(N)NCCC[C@@H]1NC(=O)[C@H](CCCNC(=N)N)NC(=O)[C@H](CCCNC(=N)N)NC(=O)[C@H](Cc2ccc3ccccc3c2)NC(=O)[C@H](Cc2ccccc2)NC(=O)[C@H](CCC(N)=O)NC(=O)[C@H](CCCNC(=N)N)NC1=O [cFΦR4, cyclo(FΦRRRRQ)] (cyclo(F[2Nal]RRRRQ))
Efficiency of entering cytoplasm and nucleus higher than nonaarginine (R9) [2]: 2-5 fold | Increase in internalization of dextran^Alexa488 [3]: 15% | Kd ([4]; pH 5.5, read-out: Membrane Binding KD (mM) SUV1 pH 5.5): 1.1 mM | Kd ([4]; pH 7.4, read-out: Membrane Binding KD (mM) SUV1 pH 7.4): 4 mM | Kd ([5]; pH 5.5, read-out: Membrane Binding KD (mM) SUV2 pH 5.5): 0.63 mM | Kd ([5]; pH 7.4, read-out: Membrane Binding KD (mM) SUV2 pH 7.4): 0.66 mM | Growth inhibition after 72 h ([6]; 50 μM): up to 20% | Growth inhibition after 24 or 48 h ([6]; up to 50 μM): no significant growth inhibition | Uptake Efficiency (%) [7]: 100% | Delivery efficiency higher than R9, Antp, and Tat [8]: 4-12 fold and 3.7-12 fold

cyclo(FΦRRRRQ)-FFFF-K(Rho) (cyclo(F[2Nal]RRRRQFFFFK(RhodamineB)); not fully specified (C-terminus, bridges); printed as cyclo(FΦRRRRQ)-FFFF-K(Rho)) [cFΦR4-F4]
Aqueous solubility [9]: poor

C[C@@H]1NC(=O)[C@H](CCCNC(=N)N)NC(=O)[C@H](Cc2ccc3ccccc3c2)NC(=O)[C@@H]2CCCCN2C(=O)[C@@H]([C@H](C)O)NC(=O)CN(C)C(=O)[C@@H](C)NC(=O)c2cc3cc(c2)C(=O)NC[C@H](NC(=O)[C@@H](C)NC1=O)C(=O)N[C@@H](Cc1ccccc1)C(=O)N[C@@H](Cc1ccc2ccccc2c1)C(=O)N[C@@H](CCCNC(=N)N)C(=O)N[C@@H](CCCNC(=N)N)C(=O)N[C@@H](CCCNC(=N)N)C(=O)N[C@@H](CCCNC(=N)N)C(=O)N[C@H](C(=O)N[C@@H](CCCCN)C(N)=O)CNC3=O [Peptide 2, bicyclo[Tm-(D-Ala-Sar-D-Thr-Pip-Nal-Arg-Ala-D-Ala)-Dap-(Phe-Nal-Arg-Arg-Arg-Arg-Dap)]-Lys] ([dA][Sar][dT][Pip][2Nal]RA[dA][Dap]F[2Nal]RRRR[Dap]K-NH2; linker N-9-16 via Trimesoyl)
Kd [10]: 0.62 µM | Reduction of potency vs inhibitor 7 [11]: ~10 fold | Ki [12]: 0.054 µM

NC(Cc1cc(=O)oc2cc(O)ccc12)C(=O)O (centres unmarked) [CAP, coumaryl aminopropionic acid]
pKa [13]: 7.8

N=C(N)NCCC[C@H](NC(=O)[C@H](CCCNC(=N)N)NC(=O)[C@H](CCCNC(=N)N)NC(=O)[C@H](CCCNC(=N)N)NC(=O)[C@H](CCCNC(=N)N)NC(=O)[C@H](CCCNC(=N)N)NC(=O)[C@H](CCCNC(=N)N)NC(=O)[C@H](CCCNC(=N)N)NC(=O)[C@@H](N)CCCNC(=N)N)C(N)=O [Peptide R9]
half-life at 50 μM [14]: ~30 min
